Read-outs that look alike come from different tables or passages of the source.
Tests used:
NK-92 cells [1] = assay: Cytokine dependent proliferation of NK-92, Jurkat and SupT1 cells; assay type: cell-based; conditions: 3 days
Procedure: The dependency of immune cells on cytokines for proliferation was tested in NK-92 cells and T cell lines Jurkat cells and SupT1 cells. Cells were seeded at 40,000 per well and cultured in the presence of IL2 or IL15 for 3 days.

NK-92 cells [2] = assay: NK-92 activation markers with IL15 (Tables 82, 84); assay type: cell-based; conditions: for pSTAT5 (15 mins) / pSTAT5 (60 mins) / CD69 / CXCR4 / Granzyme B / IFNgamma / Perforin: NK-92 cells, fold change; for pSTAT5 (15 mins) / pSTAT5 (60 mins): FACS; for CD69 / CXCR4 / Granzyme B / IFNgamma / Perforin: activation marker by FACS
Procedure: (§1) The dependency of the NK-92 cells on cytokines for activation was tested. […] The cells were cultured for 18 hours in the presence of IL12 (10 ng/ml) or varying concentrations of IL15 (100 ng/ml, 20 ng/ml, 4 ng/ml, 0.8 ng/ml, 0.16 ng/ml, 0.032 ng/ml, 0.0064 ng/ml and 0.00128 ng/ml). NK-92 cell activation in response to IL15 and IL12 treatment was evaluated by FACS analysis using a panel of markers whose increased expression is associated with NK activation. These include NKG2D, CD71, CD69; chemokine receptors such as CCR5, CXCR4, and CXCR3, Perforin, Granzyme B and Interferon gamma (IFNg). Prior to FACS analysis for IFNg, cells were cultured for 4 hours with Brefeldin A. NK cells respond to external stimuli such as cytokines in their environment through the phosphorylation of proteins JAK/STAT, ERK, and p38/MAPK pathways which are important for cell activation, signaling and differentiation pathways. The phosphorylation of AKT, STAT3 and STAT5 in response to cytokine addition was measured by FACS. Since phosphorylation events are transient NK-92 cells were treated with the cytokines for 15 or 60 minutes, prior to the analysis.
as §1, with “of” for “of IL12 (10 ng/ml) or”, “IL15” for “IL15 and IL12”, “Perform,” for “Perforin,”

T cells [3] = conditions: human, 160 μM
Procedure: The percentage of divided cells within the CD4 and the CD8 populations of T cells was measured using FACS.

HEK-293T cells = assay: DD-IL15 induction, human IL15 ELISA (Table 80); assay type: cell-based; conditions: DD-IL15 (OT-IL15-002, ecDHFR-IL15) in HEK-293T, TMP 24 hrs
Procedure: To test ligand dependent IL15 production, 1 million HEK-293T cells were plated in a 6-well plate in growth media containing DMEM and 10% FBS and incubated overnight at 37° C. at 5% CO2. Cells were then transfected with 100 ng of OT-IL15-001(constitutive) or OT-IL15-002 (ecDHFR-IL15) using Lipofectamine 2000 and incubated for 48 hrs. […] Media was collected and the undiluted samples or samples diluted 4, 16, 256, 1024, 4096 or 16384-fold were tested using human IL15 ELISA. The stabilization ratio was defined as fold change in IL15 expression with ligand treatment compared to treatment with DMSO (i.e. in the absence of ligand) with the same construct.

in vivo = conditions: Balb/C nu/nu, mouse, plasma
T cells [4] = assay: TMP dose and exposure time on membrane bound IL15 expression (Table 89); assay type: cell-based; conditions: T-cell
Procedure: For this purpose, T cells were activated with CD3/CD28 beads at 3:1 bead to T cell ratio in 24-well plates for 24 hrs. Lentivirus was added to wells. After 24 hrs, fresh media was added every 2-3 days to expand cells while maintaining cells at 0.5-1×10^6/ml. On day 11 of expansion.

With IL15: cytokine added to NK-92 cells the NK-92 cell numbers (NK-92 cells [1]) was “increased cell numbers”, the “NK-92 activation marker expression” value (NK-92 cells [2]; IL15 0.00128-100 ng/ml, 18 h) was “increase in the expression of CD69, CXCR4, Perforin, Granzyme B, and IFNg” and the “pSTAT5 (15 mins)” value (NK-92 cells [2]; IL15 0.00128 ng/ml) was 0.99. The “pSTAT5 (60 mins)” value (NK-92 cells [2]; IL15 0.00128 ng/ml) was 1.04, the CD69 (NK-92 cells [2]; IL15 0.00128 ng/ml) was 1.07 and the CXCR4 (NK-92 cells [2]; IL15 0.00128 ng/ml) was 1.15. The “Granzyme B” value (NK-92 cells [2]; IL15 0.00128 ng/ml) was 0.88, the IFNgamma (NK-92 cells [2]; IL15 0.00128 ng/ml) was 1.19 and the Perforin (NK-92 cells [2]; IL15 0.00128 ng/ml) was 0.85. The “pSTAT5 (15 mins)” value (NK-92 cells [2]; IL15 0.0064 ng/ml) was 1.03, the “pSTAT5 (60 mins)” value (NK-92 cells [2]; IL15 0.0064 ng/ml) was 1.26 and the CD69 (NK-92 cells [2]; IL15 0.0064 ng/ml) was 1.11. For the same compound, the CXCR4 (NK-92 cells [2]; IL15 0.0064 ng/ml) was 1.19, the “Granzyme B” value (NK-92 cells [2]; IL15 0.0064 ng/ml) was 0.78 and the IFNgamma (NK-92 cells [2]; IL15 0.0064 ng/ml) was 0.85. The Perforin (NK-92 cells [2]; IL15 0.0064 ng/ml) was 0.79, the “pSTAT5 (15 mins)” value (NK-92 cells [2]; IL15 0.032 ng/ml) was 1.23 and the “pSTAT5 (60 mins)” value (NK-92 cells [2]; IL15 0.032 ng/ml) was 1.67. For the same compound, the CD69 (NK-92 cells [2]; IL15 0.032 ng/ml) was 1.05, the CXCR4 (NK-92 cells [2]; IL15 0.032 ng/ml) was 1.14 and the “Granzyme B” value (NK-92 cells [2]; IL15 0.032 ng/ml) was 0.92. The IFNgamma (NK-92 cells [2]; IL15 0.032 ng/ml) was 0.95, the Perforin (NK-92 cells [2]; IL15 0.032 ng/ml) was 0.92 and the “pSTAT5 (15 mins)” value (NK-92 cells [2]; IL15 0.8 ng/ml) was 1.76. The “pSTAT5 (60 mins)” value (NK-92 cells [2]; IL15 0.8 ng/ml) was 2.17, the CD69 (NK-92 cells [2]; IL15 0.8 ng/ml) was 1.18 and the CXCR4 (NK-92 cells [2]; IL15 0.8 ng/ml) was 2.10. For the same compound, the “Granzyme B” value (NK-92 cells [2]; IL15 0.8 ng/ml) was 1.09, the IFNgamma (NK-92 cells [2]; IL15 0.8 ng/ml) was 1.92 and the Perforin (NK-92 cells [2]; IL15 0.8 ng/ml) was 1.16. For the same compound, the “pSTAT5 (15 mins)” value (NK-92 cells [2]; IL15 4 ng/ml) was 1.81, the “pSTAT5 (60 mins)” value (NK-92 cells [2]; IL15 4 ng/ml) was 2.35 and the CD69 (NK-92 cells [2]; IL15 4 ng/ml) was 1.59. For the same compound, the CXCR4 (NK-92 cells [2]; IL15 4 ng/ml) was 3.03, the “Granzyme B” value (NK-92 cells [2]; IL15 4 ng/ml) was 1.16 and the IFNgamma (NK-92 cells [2]; IL15 4 ng/ml) was 2.76. The Perforin (NK-92 cells [2]; IL15 4 ng/ml) was 1.28, the “pSTAT5 (15 mins)” value (NK-92 cells [2]; IL15 20 ng/ml) was 1.96 and the “pSTAT5 (60 mins)” value (NK-92 cells [2]; IL15 20 ng/ml) was 2.35. For the same compound, the CD69 (NK-92 cells [2]; IL15 20 ng/ml) was 2.10, the CXCR4 (NK-92 cells [2]; IL15 20 ng/ml) was 3.62 and the “Granzyme B” value (NK-92 cells [2]; IL15 20 ng/ml) was 1.40. For the same compound, the IFNgamma (NK-92 cells [2]; IL15 20 ng/ml) was 5.55, the Perforin (NK-92 cells [2]; IL15 20 ng/ml) was 1.57 and the “pSTAT5 (15 mins)” value (NK-92 cells [2]; IL15 100 ng/ml) was 1.98. For the same compound, the “pSTAT5 (60 mins)” value (NK-92 cells [2]; IL15 100 ng/ml) was 2.34, the CD69 (NK-92 cells [2]; IL15 100 ng/ml) was 1.91 and the CXCR4 (NK-92 cells [2]; IL15 100 ng/ml) was 3.87. The “Granzyme B” value (NK-92 cells [2]; IL15 100 ng/ml) was 1.48, the IFNgamma (NK-92 cells [2]; IL15 100 ng/ml) was 9.00 and the Perforin (NK-92 cells [2]; IL15 100 ng/ml) was 1.67.
In the case of `COc1cc(Cc2cnc(N)nc2N)cc(OC)c1OC` [TMP, Trimethoprim], the “TMP concentration in the plasma at early time points” value (100 mg/kg) is reported as 50 to 100 µM, the “TMP concentration in the plasma at early time points” value (300 mg/kg) is reported as 100 to 150 µM and the “TMP levels in the plasma 4 hours after dosing” value (all doses) is reported as “Virtually no TMP levels were detected”. For the same compound, the “Reduction in the percentage of divided cells” value (T cells [3]) was 70-90%, the “IL15 ELISA reading, 10 μM TMP” value (HEK-293T cells; media dilution 1-fold) was 0.820 and the “IL15 ELISA reading, 10 μM TMP” value (HEK-293T cells; media dilution 4-fold) was 0.287. For the same compound, the “IL15 ELISA reading, 10 μM TMP” value (HEK-293T cells; media dilution 16-fold) was 0.116, the “IL15 ELISA reading, 10 μM TMP” value (HEK-293T cells; media dilution 64-fold) was 0.073 and the “IL15 ELISA reading, 10 μM TMP” value (HEK-293T cells; media dilution 256-fold) was 0.057. The “IL15 ELISA reading, 10 μM TMP” value (HEK-293T cells; media dilution 1024-fold) was 0.048, the “IL15 ELISA reading, 10 μM TMP” value (HEK-293T cells; media dilution 4096-fold) was 0.049 and the “IL15 ELISA reading, 10 μM TMP” value (HEK-293T cells; media dilution 16384-fold) was 0.049. It also gave a concentration at 0.083 h (in vivo; 30 mg/kg) of 25.7 µM, a concentration at 0.25 h (in vivo; 30 mg/kg) of 19.6 µM and a concentration at 0.5 h (in vivo; 30 mg/kg) of 9.84 µM. For the same compound, the concentration at 1 h (in vivo; 30 mg/kg) was 2.55 µM, the concentration at 2 h (in vivo; 30 mg/kg) was 1.19 µM and the concentration at 4 h (in vivo; 30 mg/kg) was 0.16 µM. It also gave a concentration at 8 h (in vivo; 30 mg/kg) of 0.04 µM, a concentration at 0.083 h (in vivo; 100 mg/kg) of 81.5 µM and a concentration at 0.25 h (in vivo; 100 mg/kg) of 78.1 µM. For the same compound, the concentration at 0.5 h (in vivo; 100 mg/kg) was 58.8 µM, the concentration at 1 h (in vivo; 100 mg/kg) was 27.6 µM and the concentration at 2 h (in vivo; 100 mg/kg) was 2.97 µM. The concentration at 8 h (in vivo; 100 mg/kg) was 0.56 µM, the concentration at 24 h (in vivo; 100 mg/kg) was 0.01 µM and the concentration at 0.083 h (in vivo; 300 mg/kg) was 117 µM. The concentration at 0.25 h (in vivo; 300 mg/kg) was 137 µM, the concentration at 0.5 h (in vivo; 300 mg/kg) was 128 µM and the concentration at 1 h (in vivo; 300 mg/kg) was 80 µM. It also gave a concentration at 2 h (in vivo; 300 mg/kg) of 32.6 µM, a concentration at 4 h (in vivo; 300 mg/kg) of 1.03 µM and a concentration at 8 h (in vivo; 300 mg/kg) of 0.3 µM. For the same compound, the concentration at 24 h (in vivo; 300 mg/kg) was 0.01 µM, the EC50 (T cells [4]; 6 h, read-out: EC50, uM (% IL15 + IL15Ra+)) was 0.021 µM and the EC50 (T cells [4]; 6 h, read-out: EC50, uM (total IL15 MFI)) was 0.03 µM. The EC90 (T cells [4]; 6 h, read-out: EC90, uM (% IL15 + IL15Ra+)) was 0.81 µM, the EC90 (T cells [4]; 6 h, read-out: EC90, uM (total IL15 MFI)) was 0.88 µM and the EC50 (T cells [4]; 24 h, read-out: EC50, uM (% IL15 + IL15Ra+)) was 0.035 µM. For the same compound, the EC50 (T cells [4]; 24 h, read-out: EC50, uM (total IL15 MFI)) was 0.063 µM, the EC90 (T cells [4]; 24 h, read-out: EC90, uM (% IL15 + IL15Ra+)) was 0.255 µM and the EC90 (T cells [4]; 24 h, read-out: EC90, uM (total IL15 MFI)) was 0.75 µM. It also gave an EC50 (T cells [4]; read-out: EC50, uM (% IL15 + IL15Ra+)) of 11.5 µM, an EC50 (T cells [4]; read-out: EC50, uM (total IL15 MFI)) of 11.1 µM and an EC90 (T cells [4]; read-out: EC90, uM (% IL15 + IL15Ra+)) of 59.6 µM. For the same compound, the EC90 (T cells [4]; read-out: EC90, uM (total IL15 MFI)) was 66.9 µM.

From patent publication US12104178B2, “DHFR tunable protein regulation” (Obsidian Therapeutics, Inc., priority 2017, dated 2024)
